“And” between values parts separate entries of the source, which are not always exact repeats. Equal values may be shown once.

What all share (assay): Calcium Flux Test, activity as TRPV-1 agonist
Common to all, as to format: cell-based

The target in assay [1] is T1, human vanilloid receptor-1 (TRPV-1) (Homo sapiens, UniProt Q8NER1).
T1 construct: host or cells: HEK293
Further details: key: **: Statistically significant; n/s: Not statistically significant. The method, then:
(§1) The Calcium Flux Test is performed in the following manner: Recombinant HEK293 cells expressing human vanilloid receptor-1 (TRPV-1; accession number AF196175, EMD Millipore, Billerica, Mass.) are grown in D-MEM/F-12 media (Life Technologies, Grand Island, N.Y.) supplemented with 10% fetal bovine serum, 1% non essential amino acids and 400 μg/mL Geneticin (Gibco, Life Technologies). Cells are plated at a concentration of 15,000 cells per well on poly-D-lysine-coated 384 well plates and incubated overnight at 5% CO2 and 37° C. After incubation, culture media is removed from the wells and replaced with 50 μL per well of Fluo-8 No Wash dye solution (#36315, AAT Bioquest, Sunnyvale, Calif.). The Fluo-8 dye solution is prepared by mixing 20 uL of Fluo-8 NW with 30 mL of 0.33× Pluronic® F127 Plus (BASF of Ludwigshafen, Germany) in assay buffer (1×HBSS+2% of HEPES). Fluo-8 dye is incubated for 30 minutes at room temperature. Intracellular calcium (Ca^2+) flux is monitored upon exposure to aromatic alcohol in DMSO vehicle by measuring fluorescence intensity at Ex/Em 490/525 on a Functional Drug Screening System (FDSS; Hamamatsu, […]). Measurements are taken every second for a period of 4 minutes. […] Statistical differences are obtained using One Way ANOVA with Tukey Post-hoc test; statistical significance is defined as P≦0.05.
(§2) Phenoxyethanol was tested at a series of concentrations in DMSO for activity as a TRPV-1 agonist according to the Calcium Flux Test described above. Capsaicin was used as a positive control.
(§3) Maximum RFU values for treatment with phenoxyethanol or capsaisin were compared to the Maximum RFU for a DMSO vehicle alone. Concentrations of phenoxyethanol and capsaicin are reported in milimolar (mM) and nanomolar (nM), respectively.
(§4) Benzyl alcohol and sodium bicarbonate were tested using the Calcium Flux Test.
(§5) Benzyl alcohol and phenethyl alcohol were tested at a series of concentrations in DMSO for activity as a TRPV-1 agonist as described in Example 1. Concentrations of benzyl alcohol and phenethyl alcohol are reported in units of % w/v.

For assay [2], the target named is T1, human vanilloid receptor-1 (TRPV-1). The procedure: as §1, §2, §3, §4, §5
Assay [3] has the same target. Further details: key: **: statistically significant; n/s: not statistically significant. The procedure:
as §1, §2, §3, §4, §5

T1 sequence (Q8NER1 whole entry): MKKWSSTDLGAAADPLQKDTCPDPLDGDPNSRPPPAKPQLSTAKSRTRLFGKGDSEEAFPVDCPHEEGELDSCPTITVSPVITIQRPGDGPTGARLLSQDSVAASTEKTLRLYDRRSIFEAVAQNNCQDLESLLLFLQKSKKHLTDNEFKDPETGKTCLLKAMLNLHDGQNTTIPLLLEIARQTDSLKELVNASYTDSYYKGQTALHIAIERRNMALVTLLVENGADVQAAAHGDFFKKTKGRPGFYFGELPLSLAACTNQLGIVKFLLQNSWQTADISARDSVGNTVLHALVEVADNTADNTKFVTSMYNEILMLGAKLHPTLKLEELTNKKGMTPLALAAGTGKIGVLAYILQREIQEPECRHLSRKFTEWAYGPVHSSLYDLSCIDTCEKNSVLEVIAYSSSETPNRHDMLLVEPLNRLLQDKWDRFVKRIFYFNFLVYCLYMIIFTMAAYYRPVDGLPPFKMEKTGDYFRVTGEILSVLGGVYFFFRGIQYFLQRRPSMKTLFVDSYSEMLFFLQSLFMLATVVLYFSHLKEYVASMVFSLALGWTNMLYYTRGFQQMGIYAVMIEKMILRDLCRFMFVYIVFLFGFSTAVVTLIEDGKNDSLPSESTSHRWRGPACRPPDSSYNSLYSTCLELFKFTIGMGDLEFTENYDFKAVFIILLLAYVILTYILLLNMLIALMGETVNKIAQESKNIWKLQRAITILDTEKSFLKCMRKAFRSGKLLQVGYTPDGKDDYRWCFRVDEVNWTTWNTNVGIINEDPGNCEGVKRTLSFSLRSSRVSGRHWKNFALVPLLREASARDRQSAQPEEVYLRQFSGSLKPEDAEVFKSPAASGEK

Consider `OCCOc1ccccc1` [Phenoxyethanol, 2-phenoxy-1-ethanol], for which the “P < 0.05 Compared to Vehicle” value in assay [1] (phenoxyethanol 0.5 mM) was “n/s”; in assay [1] (phenoxyethanol 0.75 mM) it was “n/s”; in assay [1] (phenoxyethanol 1 mM), “**”; in assay [1] (phenoxyethanol 1.5 mM) it was “**”; in assay [1] (phenoxyethanol 2 mM), “**”; in assay [1] (phenoxyethanol 2.5 mM), “**”. The “P < 0.05 Compared to Vehicle” value in assay [1] (phenoxyethanol 3 mM), in assay [1] (phenoxyethanol 3.5 mM) and in assay [1] (phenoxyethanol 4 mM) was “**” throughout. Further, the “increase in Maximum RFU values compared to the vehicle alone” value in assay [2] is “thirty to forty-fold”. In assay [2], the “intracellular calcium flux in TRPV-1-transfected HEK cells (result in words)” value (“intracellular calcium flux” for short) is recorded as “dose dependent increases”. The “Maximum RFU (mean ± SD)” value in assay [2] (phenoxyethanol 0.5 mM alone) is 96.96 ± 61.20 RFU; in assay [2] (phenoxyethanol 0.75 mM alone), 124.81 ± 37.58 RFU; in assay [2] (phenoxyethanol 1 mM alone) it was 200.28 ± 76.93 RFU; in assay [2] (phenoxyethanol 1.5 mM alone), 304.41 ± 70.10 RFU; in assay [2] (phenoxyethanol 2.5 mM alone) it was 363.73 ± 44.11 RFU; in assay [2] (phenoxyethanol 3 mM alone), 401.68 ± 26.58 RFU and 441.76 ± 36.68 RFU and 224.26 ± 42.60 RFU and 257.93 RFU. In addition, the “Maximum RFU (mean ± SD)” value is on record as 404.21 ± 42.32 RFU in assay [2] (phenoxyethanol 3.5 mM alone) and 453.25 ± 34.18 RFU in assay [2] (phenoxyethanol 4 mM alone).

`COc1cc(CNC(=O)CCCC/C=C/C(C)C)ccc1O` [Capsaicin, capsaicin]: the “P < 0.05 Compared to Vehicle” value in assay [3] (capsaicin 0.0381 nM) was “n/s”; in assay [3] (capsaicin 0.1526 nM), “n/s”; in assay [3] (capsaicin 0.6104 nM) it was “**”; in assay [3] (capsaicin 2 nM), “**”; in assay [3] (capsaicin 10 nM), “**”; in assay [3] (capsaicin 39 nM), “**”. The “P < 0.05 Compared to Vehicle” value in assay [3] (capsaicin 156 nM), in assay [3] (capsaicin 625 nM), in assay [3] (capsaicin 2500 nM) and in assay [3] (capsaicin 10000 nM) was “**” throughout. In assay [2], the “intracellular calcium flux” value is given as “dose dependent increases”. In addition, the “Maximum RFU (mean ± SD)” value in assay [2] (capsaicin 0.0381 nM alone) was 10.19 ± 2.94 RFU; in assay [2] (capsaicin 0.1526 nM alone), 29.34 ± 8.18 RFU; in assay [2] (capsaicin 0.6104 nM alone), 121.32 ± 46.41 RFU; in assay [2] (capsaicin 2 nM alone), 253.47 ± 24.63 RFU; in assay [2] (capsaicin 10 nM alone), 348.17 ± 5.56 RFU; in assay [2] (capsaicin 39 nM alone) it was 405.53 ± 11.25 RFU. Also, the “Maximum RFU (mean ± SD)” value is 647.05 ± 33.18 RFU and 849.62 ± 7.02 RFU and 1006.91 ± 74.51 RFU in assay [2] (capsaicin 100 nM alone (0 antagonist)); 491.07 ± 21.10 RFU in assay [2] (capsaicin 156 nM alone); 860.95 ± 33.14 RFU and 875.05 ± 55.11 RFU in assay [2] (capsaicin 300 nM alone (0 nM antagonist)); 604.13 ± 32.46 RFU in assay [2] (capsaicin 625 nM alone); 617.87 ± 34.14 RFU in assay [2] (capsaicin 2500 nM alone); 698.83 ± 30.57 RFU in assay [2] (capsaicin 10000 nM alone).

For `O=C([O-])O.[Na+]` [Sodium Bicarbonate, sodium bicarbonate], the “P < 0.05 Compared to Vehicle” value is “n/s” in assay [1] (sodium bicarbonate 0.03125 mM); “n/s” in assay [1] (sodium bicarbonate 0.0625 mM); “n/s” in assay [1] (sodium bicarbonate 0.125 mM); “**” in assay [1] (sodium bicarbonate 0.25 mM); “n/s” in assay [1] (sodium bicarbonate 0.5 mM). Besides, the “intracellular calcium flux” value in assay [2] was “do not Induce Calcium Flux”. Further, the “Maximum RFU (mean ± SD)” value in assay [2] (sodium bicarbonate 0.03125 mM) is 109.99 ± 1.37 RFU; in assay [2] (sodium bicarbonate 0.0625 mM) it was 102.15 ± 4.19 RFU; in assay [2] (sodium bicarbonate 0.125 mM), 114.34 ± 6.46 RFU; in assay [2] (sodium bicarbonate 0.25 mM), 124.90 ± 8.41 RFU; in assay [2] (sodium bicarbonate 0.5 mM), 3.39 ± 2.66 RFU.

Source of the values: patent US9155714B2, “Compositions comprising an aromatic alcohol and a TRPV-1 antagonist, and uses thereof” (JOHNSON & JOHNSON CONSUMER INC., priority 2013, dated 2015).
